In US11318103B2, “Treating soft tissue via controlled drug release” (University of Pittsburgh—Of the Commonwealth System of …, priority 2014, dated 2022):

Assays:
[1] = system: human osteochondral plugs; test: T3-induced calcification of human osteochondral plugs (ALP assay, real time-PCR); assay type: cell-based; details: treatment with triiodothyronine (T3), day 0 versus day 20
Source text: FIG. 5 represents the outline for testing of preventing calcification. Experimental design to test the effects of triiodothyronine in inducing calcification and of dorsomorphin in inhibiting calcification in human osteochondral biopsies, an example of which is depicted on the right.
FIG. 6 is two graphs depicting ALP activity. The graphs represent the level of ALP activity in the osteochondral constructs media measured with a colorimetric ALP assay for the samples outlined in the previous figure.
Dorsomorphin has been encapsulated in PLGA-based MPs of micrometer scale dimensions. As the particles degrade, dorsomorphin is released generating a local concentration within the range required to prevent local calcification. To confirm this, human osteochondral plugs (3 mm by 3 mm by 8 mm of a cartilage and bone biopsy-like sample) have been forced to calcify using triiodothyronine (T3) and then exposed to dorsomorphin.

human chondrocytes = test: T3-induced hypertrophy of primary chondrocytes; assay type: cell-based; details: T3 medium 14 or 21 days, maintained after exposure to chondrogenic medium
Source text: FIGS. 7A-7F are microphotographs of human chondrocytes. Chondrocytes extracted from human donors have been cultured under a test medium to induce hypertrophy for 14 or 21 days followed by 14 or 7 days of chondrogenic medium, respectively. The test medium was either chondrogenic medium (negative control, no hypertrophy), medium containing triiodothyronine (T3) (hypertrophic), osteogenic medium (hypertrophic).
In autologous chondrocytes implantation (ACI) chondrocytes are implanted in a local cartilage defect. In an in vitro model of ACI based on a small osteochondral unit, as the one we use, a central cartilage defect would be filled with chondrocytes in a hydrogel. To simulate conditions of calcification, the chondrocytes will be pre-cultured in a hypertrophy inducing medium. After seeding, both native cartilage and implanted chondrocytes would be exposed to chondrogenic medium. We have previously shown that T3 induces hypertrophy in MSCs that underwent chondrogenic differentiation. […] Chondrogenic medium and osteogenic medium are used as comparison.

`N[C@@H](Cc1cc(I)c(Oc2ccc(O)c(I)c2)c(I)c1)C(=O)O` [triiodothyronine] was tested, and the “ALP activity in osteochondral constructs media” value [1] was “statistically significant (p<0.05) increase in ALP activity” and the primary chondrocytes hypertrophy (human chondrocytes) was “effective to induce primary chondrocytes hypertrophy”.
